Measured values taken from patent publication US4816447A, “Anti-viral guanine compounds” (priority 1984, dated 1989).
Where two headings read alike, the source gives them in different places.

How the values were obtained:
[1] = test system: guanosine monophosphate kinase and extract of HSV1-infected HeLa cells; assay type: biochemical; details: gmp kinase, 4 h
Method: To the rest of the incubation mixtures were now added 0.04 units of guanosine monophosphate kinase and 20 μl of an extract of HSV1-infectedHeLa cells [The cells were infected with the virus at a multiplicity of 10 and harvested 8 hours later; they were suspended in a solution containing 0.35M KH2 PO4, pH 7.5, 0.5 mM dithiothreitol, 0.2% polyoxyethylene(9)octylphenol (Nonidet P-40), 14% glycerol at 50 mg/ml and after 30 minutes at 4° were centrifuged at […]; the supernatant liquid was the crude extract.] Incubation was continued at 30° for 4 more hours, after which samples were analyzed by HPLC and the amount of the triphosphate derivatives of each compound determined by integration of the area under the respective chromatographic peak.

[2] = test system: Epstein-Barr virus (EBV); assay: Human cord blood lymphocyte transformation assay; assay type: cell-based, Epstein-Barr (B95-8); human cord blood lymphocytes; details: human gammaherpesvirus 4, B-95-8; B95-8, lymphocyte transformation; read-out: Minimum Effective Concentration
Excerpt: ^c Human cord blood lymphocyte transformation assay.

[3] = test system: Herpes simplex virus type I (HSV-1), strain Schooler; assay: Treatment of Herpes simplex virus infection in mice, intraperitoneal HSV-1, subcutaneous treatment (Table II); assay type: in vivo, HSV-1; ICR/Ha mice; details: for Percent Survival: at 15 days
[4] = test system: Herpes simplex virus type I (HSV-1), strain Schooler; assay: Treatment of Herpes simplex virus infection in mice, repeat experiment (Table III); assay type: in vivo, HSV-1; ICR/Ha mice; details: for Percent Survival: at 15 days
Method: Twenty gram ICR/Ha mice were injected intraperitoneally (ip) with 0.5 ml of a 10^-5 dilution of a stock preparation of Herpes simplex virus type I (HSV-1), strain Schooler. This virus challenge infected each animal with approximately 100 LD50. […] The placebo group was composed of 45 animals. All compounds were solubilized in physiological saline, pH 11.5.

[5] = test system: HSV-1; assay: Intraperitoneal HSV-1 infection in mice, oral treatment (Table VI); assay type: in vivo, HSV-1; ICR/Ha mice; details: for minimal effective dose: Human alphaherpesvirus 1, intraperitoneal infection, oral treatment, read-out: Min. Effective Dose
[6] = test system: HSV-1; assay: Corneal HSV-1 infection of rabbit eyes, topical treatment (Table VI); assay type: in vivo, HSV-1; rabbits; details: for Min. Effective Dose: corneal infection, topical treatment; for limiting progression and resolving corneal lesions: infected rabbits
[7] = test system: Herpes simplex virus type 1; assay: Intraperitoneal Herpes simplex type 1 infection in mice, oral treatment (Table XI); assay type: in vivo, Herpes simplex type 1; ICR/Ha mice; details: for Percent Survival: at 13 days
Excerpt: ICR/Ha mice were infected as described in Example 36. […] These animals served as toxicity controls.

[8] = test system: Herpes simplex virus type 1 (Strain S); assay: Orofacial Herpes simplex virus type 1 infection in mice, oral treatment (Table XIII); assay type: in vivo, Herpes simplex virus type 1; HRS (hairless) mice; details: for Lesion Incidence (%) / Lesion Incidence (number/Total) / Lesion Severity (scale 0 to 4): 7 days
Method: Twenty grams HRS (hairless) mice were infected on the abraded orofacial area with Herpes simplex virus type 1 (Strain S). […] At 7 days after initiation of infection, the extent of lesion development in the orofacial area was measured on a scale of 0 (no lesions) to 4 (massive lesions over the entire snout).

[9] = test system: Herpes simplex virus type 2; assay: Tube dilution assay, viral cytopathology of HSV-2 in rabbit kidney cell cultures; details: Human alphaherpesvirus 2, in Oryctolagus cuniculus, read-out: Minimum Effective Concentration
[10] = test system: SV40; assay: Plaque inhibition, SV40 on CV-1 cells (Table V); assay type: cell-based, SV40; CV-1 (monkey) cells; details: for EC50: Primates, read-out: ED50, concentration required for 50% plaque inhibition, SV40, CV-1
Method: ED50 values developed for the cyclic monophosphate are compared on a weight basis to those established for the compound of Formula II and acyclovir.
SV40 was assayed on CV-1 (monkey) cell cultures.

[11] = test system: HSV-1; assay: In vitro activity against HSV-1 with and without added thymidine; assay type: cell-based; details: for EC50: read-out: ED50 (the source's name)
[12] = test system: HSV-1 (383R1); assay: Protection of mice against intraperitoneal infection with HSV-1 (383R1) (Table IX); assay type: in vivo, HSV-1; mice; details: for Mean Survival Time (± SD): HSV-1 (383R1), s.c. twice daily, 4 days; for efficacy against HSV-1 (383R1) relative to wild type HSV-1: mouse, in vivo
Method: 1. […] Groups of mice infected intraperitoneally with increasing doses of HSV-1 or HSV-1 (383R1) were treated twice daily subcutaneously for 4 days with either the Cyclic Monophosphate or the compound of Formula II. Mean survival times of treated mice were compared.

[13] = Human alphaherpesvirus 1, absence of thymidine
[14] = Human alphaherpesvirus 1, presence of thymidine (20 μg/ml)

Nc1nc2c(ncn2COCCO)c(=O)[nH]1 [Acycloguanosine, 9-(2-hydroxyethoxymethyl)guanine, reference compound]
converted to the triphosphate [1]: 31% | minimal effective concentration [2]: 10 to 100 µg/mL | Avg. Survival Time ([3]; 3.1 mg/kg/day s.c.): 6.4 days | Percent Survival ([3]; 3.1 mg/kg/day s.c.): 6% | Avg. Survival Time ([3]; 12.5 mg/kg/day s.c.): 6.2 days | Percent Survival ([3]; 12.5 mg/kg/day s.c.): 6% | Avg. Survival Time ([3]; 50 mg/kg/day s.c.): 7.7 days | Percent Survival ([3]; 50 mg/kg/day s.c.): 0% | Avg. Survival Time ([4]; 12.5 mg/kg/day s.c.): 7.0 days | Percent Survival ([4]; 12.5 mg/kg/day s.c.): 6% | Avg. Survival Time ([4]; 50 mg/kg/day s.c.): 7.8 days | Percent Survival ([4]; 50 mg/kg/day s.c.): 0% | Avg. Survival Time ([4]; 100 mg/kg/day s.c.): 7.8 days | Percent Survival ([4]; 100 mg/kg/day s.c.): 10% | minimal effective dose [5]: 12.5 to 50 mg/kg/day | Min. Effective Dose [6]: 1.0% | limiting progression and resolving corneal lesions [6]: equally effective | Avg. Survival Time ([7]; 3.1 mg/kg/day oral): 6.3 days | Percent Survival ([7]; 3.1 mg/kg/day oral): 0% | Avg. Survival Time ([7]; 12.5 mg/kg/day oral): 6.6 days | Percent Survival ([7]; 12.5 mg/kg/day oral): 0% | Avg. Survival Time ([7]; 50 mg/kg/day oral): 8.2 days | Percent Survival ([7]; 50 mg/kg/day oral): 20% | Avg. Survival Time ([7]; 100 mg/kg/day oral): 11.4 days | Percent Survival ([7]; 100 mg/kg/day oral): 60% | survival vs placebo ([7]; all treated groups): none of the acycloquanosine-treated groups showed enhanced survival | extension of survival time vs placebo ([7]; only at 100 and 50 mg/kg daily): statistically significant extension of survival time | Lesion Incidence (%) ([8]; 0.8 mg/kg/day oral): 88% | Lesion Incidence (number/Total) ([8]; 0.8 mg/kg/day oral): 7/8 | Lesion Severity (scale 0 to 4) ([8]; 0.8 mg/kg/day oral): 3.11 | Lesion Incidence (%) ([8]; 3.1 mg/kg/day oral): 100% | Lesion Incidence (number/Total) ([8]; 3.1 mg/kg/day oral): 6/6 | Lesion Severity (scale 0 to 4) ([8]; 3.1 mg/kg/day oral): 3.25 | Lesion Incidence (%) ([8]; 12.5 mg/kg/day oral): 100% | Lesion Incidence (number/Total) ([8]; 12.5 mg/kg/day oral): 6/6 | Lesion Severity (scale 0 to 4) ([8]; 12.5 mg/kg/day oral): 2.67 | Lesion Incidence (%) ([8]; 50 mg/kg/day oral): 14% | Lesion Incidence (number/Total) ([8]; 50 mg/kg/day oral): 1/7 | incidence of lesions vs placebo ([8]; only at 50 mg/kg): statistically significant protection | extent of lesion development vs placebo ([8]; only at 50 and 12.5 mg/kg): statistically significant protection | minimal effective concentration [9]: 1 to 3 µg/mL

Nc1nc2c(ncn2COC(CO)CO)c(=O)[nH]1 [Compound of Formula II, 9-(1,3-Dihydroxy-2-propoxymethyl)guanine]
converted to the triphosphate [1]: 93% | minimal effective concentration [2]: 1 to 5 µg/mL | Avg. Survival Time ([3]; 3.1 mg/kg/day s.c.): 12.5 days | Percent Survival ([3]; 3.1 mg/kg/day s.c.): 53% | Avg. Survival Time ([3]; 12.5 mg/kg/day s.c.): 14.1 days | Percent Survival ([3]; 12.5 mg/kg/day s.c.): 73% | Avg. Survival Time ([3]; 50 mg/kg/day s.c.): 19.1 days | Percent Survival ([3]; 50 mg/kg/day s.c.): 100% | Avg. Survival Time ([4]; 0.2 mg/kg/day s.c.): 9.0 days | Percent Survival ([4]; 0.2 mg/kg/day s.c.): 26% | Avg. Survival Time ([4]; 0.8 mg/kg/day s.c.): 9.8 days | Percent Survival ([4]; 0.8 mg/kg/day s.c.): 40% | Avg. Survival Time ([4]; 3.1 mg/kg/day s.c.): 11.8 days | Percent Survival ([4]; 3.1 mg/kg/day s.c.): 46% | Avg. Survival Time ([4]; 12.5 mg/kg/day s.c.): 17.2 days | Percent Survival ([4]; 12.5 mg/kg/day s.c.): 93% | Avg. Survival Time ([4]; 50 mg/kg/day s.c.): 19.5 days | Percent Survival ([4]; 50 mg/kg/day s.c.): 100% | calculated average relative potency to acycloguanosine (95% CI) ([4]; combined results of both mouse experiments): 287.0 | EC50 [10]: > 100 µg/mL | reduction of antiviral activity by thymidine ([11]; 20 μg thymidine/ml): greater than 15 fold | EC50 [11, 13]: 0.8 to 1.6 µg/mL | EC50 [11, 14]: 25 µg/mL | Mean Survival Time (± SD) [12]: 9.05 (0.80) | efficacy against HSV-1 (383R1) relative to wild type HSV-1 [12]: significantly lower | Avg. Survival Time ([7]; 0.2 mg/kg/day oral): 6.8 days | Percent Survival ([7]; 0.2 mg/kg/day oral): 0% | Avg. Survival Time ([7]; 0.8 mg/kg/day oral): 8.5 days | Percent Survival ([7]; 0.8 mg/kg/day oral): 20% | Avg. Survival Time ([7]; 3.1 mg/kg/day oral): 11.7 days | Percent Survival ([7]; 3.1 mg/kg/day oral): 50% | Avg. Survival Time ([7]; 12.5 mg/kg/day oral): 13.9 days | Percent Survival ([7]; 12.5 mg/kg/day oral): 80% | Avg. Survival Time ([7]; 50 mg/kg/day oral): 16.9 days | Percent Survival ([7]; 50 mg/kg/day oral): 100% | extension of survival time vs placebo ([7]; 50, 12.5, 3.1 and 0.8 mg/kg daily): statistically significant extension of survival time | survival vs placebo ([7]; 50 and 12.5 mg/kg groups): statistically significantly longer | overt toxicity, final weight of test animals ([7]; oral, twice daily for 7 days): no evidence of overt toxicity | relative potency to acycloguanosine ([7]; statistically significant): 50.3 | Lesion Incidence (%) ([8]; 0.2 mg/kg/day oral): 100% | Lesion Incidence (number/Total) ([8]; 0.2 mg/kg/day oral): 7/7 | Lesion Severity (scale 0 to 4) ([8]; 0.2 mg/kg/day oral): 2.93 | Lesion Incidence (%) ([8]; 0.8 mg/kg/day oral): 100% | Lesion Incidence (number/Total) ([8]; 0.8 mg/kg/day oral): 7/7 | Lesion Severity (scale 0 to 4) ([8]; 0.8 mg/kg/day oral): 2.93 | Lesion Incidence (%) ([8]; 3.1 mg/kg/day oral): 67% | Lesion Incidence (number/Total) ([8]; 3.1 mg/kg/day oral): 6/9 | Lesion Severity (scale 0 to 4) ([8]; 3.1 mg/kg/day oral): 1.00 | Lesion Incidence (%) ([8]; 12.5 mg/kg/day oral): 20% | Lesion Incidence (number/Total) ([8]; 12.5 mg/kg/day oral): 2/10 | Lesion Severity (scale 0 to 4) ([8]; 12.5 mg/kg/day oral): 0.45 | Lesion Incidence (%) ([8]; 50 mg/kg/day oral): 10% | Lesion Incidence (number/Total) ([8]; 50 mg/kg/day oral): 1/10 | Lesion Severity (scale 0 to 4) ([8]; 50 mg/kg/day oral): 0.05 | incidence of lesions vs placebo ([8]; 50 and 12.5 mg/kg): statistically significant protection | extent of lesion development vs placebo ([8]; all concentrations used): statistically significant protection | relative potency to acycloguanosine ([8]; statistically significant): 6.9 | minimal effective concentration [9]: 1 to 3 µg/mL

Nc1nc2c(ncn2COC2COP(=O)(O)OC2)c(=O)[nH]1 (centres unmarked) [Cyclic Monophosphate, Potassium 9-(1,3-dihydroxy-2-propoxymethyl)guanine cyclic monophosphate]
EC50 [10]: 6 µg/mL | inhibition of DNA virus ([10]; SV40): inhibitory | minimal effective dose [5]: 0.8 to 3.1 mg/kg/day | efficacy relative to acyclovir by minimum effective dose ([5]; intraperitoneal): consistently more efficacious than acyclovir | antiviral efficacy in the herpes-mouse infection model relative to compound of Formula II ([5]; not shown in Table VI): generally equivalent | Min. Effective Dose [6]: 1.0% | limiting progression and resolving corneal lesions [6]: equally effective | EC50 [11, 13]: 12.5 µg/mL | EC50 [11, 14]: 25 to 50 µg/mL | Mean Survival Time (± SD) [12]: 13.42 (0.82) | efficacy against HSV-1 (383R1) relative to wild type HSV-1 [12]: equally effective
